Source: article PMC10482825 (Scientific Reports, 2023)
≈ marks a conversion by molar mass, not a printed value. Where a SMILES comes first, the peptide text is derived from it.

Legend:
[1] = tested on: the different tested pathogens; type: cell-based; conditions: span over tested pathogens, undetected values disregarded
From the text: (§1) The microbial strains used in this study were Bacillus subtilis (ATCC, 11774), Candida albicans (TIMM, 1768), Enterococcus faecalis (ATCC, 33186), Escherichia coli (ATCC, 11775), Klebsiella pneumoniae (ATCC, 13883), Methicillin-resistant Staphylococcus aureus (ATCC, BAA-41), Pseudomonas aeruginosa (ATCC, 10145), Salmonella enterica (ATCC, 14028), Serratia marcescens (ATCC, 13880), Staphylococcus aureus (ATCC, 25923) and Vibrio parahaemolyticus (ATCC, 17802). All microbial strains were cultivated overnight at 37 °C and 200 rpm, then subcultured and incubated for 3 h under the same incubation conditions to obtain the mid-logarithmic growth phase. The cultivated cells were washed twice with 10 mM Tris–HCl containing 5 mM D-glucose at pH 7.4 and suspended in the same buffer to be used in different assays, as previously described.
(§2) As a conclusive quantitative assessment, broth microtiter assay was used to determine the MIC values of each cryptide against B. subtilis, MRSA, S. enterica, P. aeruginosa, V. parahaemolyticus and C. albicans by following the guidelines of the Clinical and Laboratory Standards Institute (CLSI)[67], with slight modifications. Eighty microliters of 5 × 10^4 CFU/ml of each pathogen were dispensed into a 96-well polypropylene microtiter plate. The wells were then treated with 20 µl of serially diluted cryptides for 3 h at 37 °C. Gentamicin was used for positive controls at 0.2 mg/ml while an equivalent volume of acidified water was used for negative controls. The plates were then topped up with a final concentration of 1 × Mueller Hinton Broth (MHB) and incubated for 18 h under the same incubation conditions. MIC was detected as the lowest concentration of each cryptide that prevents the optically detectable microbial growth at OD = 600 nm.

[2] = tested on: P. aeruginosa; type: cell-based, Pseudomonas aeruginosa (ATCC, 10145); conditions: micro-broth dilution, 3 h peptide treatment then MHB 18 h, 37 °C, OD 600 nm
From the text: as §1, §2

[3] = tested on: RD; type: cell-based; conditions: 24 h, serum-free medium, MTT, 37 °C, 5% CO2; mean ± SD
Experimental: (§3) The used mammalian cell lines in our study were colorectal adenocarcinoma (Caco2, ATCC-HTB-37), colorectal carcinoma (HCT 116, ATCC-CCL-247), lung carcinoma (A549, ATCC- CCL-185), cervical cancer cells (HeLa, ATCC-CCL-2), neuroblastoma (SH-SY5Y, ATCC- CRL-2266), rhabdomyosarcoma (RD, ATCC- CCL-136) and human embryonic kidney cells (HEK 293, ATCC- CRL-1573). All the cells were maintained into Dulbecco’s Modified Eagle’s Medium (DMEM) supplemented with 10% heat-inactivated fetal bovine serum, 2 mM L-Glutamine, 100 U/ml penicillin–streptomycin (Pen/Strep) at 37 °C in 5% CO2 humidified incubator.
(§4) First, the cytotoxic effect of 24 h serum deprivation on all the selected cell lines was evaluated by MTT assay, following standard protocols. Briefly, cells were seeded and maintained at 37 °C and 5% CO2 in 24-well plates until they reached 75–80% confluency (zero time). Following washing twice with 1X PBS, cells were incubated in a serum-free medium for 24 h, under the same incubation conditions. The cell viability percentages were calculated and compared to zero time as 100% viability to nullify any possible effects of serum deprivation. Thence, the cell viability percentage of each cell line in response to 24 h treatment with different concentrations of each cryptide in serum-free medium was calculated. […] All the measured cell viability percentages were normalised against the corresponding negative controls.

[4] = tested on: SH-SY5Y; type: cell-based; conditions: 24 h, serum-free medium, MTT, 37 °C, 5% CO2; mean ± SD
Experimental: as §3, §4

[5] = type: cell-based; conditions: 24 h, serum-free medium, MTT, 37 °C, 5% CO2; mean ± SD; read-out: IC50 (µM) A459
Experimental: as §3, §4

[6] = tested on: P. aeruginosa; type: cell-based, Pseudomonas aeruginosa (ATCC, 10145); conditions: 20 µl of wells without growth on agar, 18 h, 37 °C
[7] = tested on: HEK-293; assay: MTT cytotoxicity on normal cells; type: cell-based, human; conditions: 25 µM (highest tested concentration), 24 h, serum-free medium
Experimental: as §3, §4

[8] = tested on: S. enterica mature biofilm; assay: Antibiofilm microtiter plate assay (mature biofilm, crystal violet); type: cell-based, Salmonella enterica (ATCC, 14028); conditions: tested 12.5-200 µM
Experimental: The antibiofilm activities of the selected cryptides against S. enterica and MRSA mature biofilms were examined by microtiter plate assay as previously described, with slight modification. During the mid-logarithmic phase, S. enterica and MRSA were suspended at the density of 1.7 × 10^8 CFU/ml in MHB. Then 100 µl of each bacterial suspension was dispensed into a vinyl 96 U-shaped-well plate and incubated overnight at 37 °C. The mature biofilms were washed with 10 mM Tris–HCl containing 5 mM D-glucose at pH 7.4 and treated for 8 h with 100 µl of two-fold serially diluted cryptides, under the same incubation conditions. A sterile MHB medium was used as the positive control while an equivalent volume of acidified water was used to treat the negative controls. The treated biofilms were washed twice with the same washing buffer and stained with 0.1% crystal violet for 15 min followed by rinsing with sterile distilled water twice and then dried for 30 min at 37 °C. The stain was dissolved with 33% acetic acid and transferred to an optically clear 96-well flat bottom plate which was then measured at 600 nm.
Table S.4 Antibiofilm activities of the selected Cryptides against S. enterica and MRSA. Microbial cells were suspended at 1.7 X 10^8 CFU/ml density, during the mid-logarithmic phase in MHB. Then, 96 U-shaped -well plates were inoculated with 100 µl of microbial suspension and incubated for 48 h at 37 °C. The formed biofilms were washed with 10 mM Tris-HCl and treated with 100 µl of different concentrations of each peptide for 24 h. The treated biomasses were washed and fixed with methanol for 15 min at -20 °C before staining with 0.1 % crystal violet. The stained biofilms were dissolved in 100 µl of 33 % acetic acid and the quantities of crystal violet stains were determined by measuring absorbance at 600 nm as an indicator of the remaining biomass after treatment. Untreated cells were used as negative control [indicating 100 % biofilm integrity] while the sterile medium was used as a positive control [indicating 0 % biofilm integrity].
S. enterica MRSA S. enterica MRSA S. enterica MRSA S. enterica MRSA S. enterica MRSA

[9] = tested on: C. albicans; type: cell-based, Candida albicans (TIMM, 1768); conditions: micro-broth dilution, 3 h peptide treatment then MHB 18 h, 37 °C, OD 600 nm
From the text: as §1, §2

[10] = tested on: MRSA; type: cell-based, Methicillin-resistant Staphylococcus aureus (ATCC, BAA-41); conditions: micro-broth dilution, 3 h peptide treatment then MHB 18 h, 37 °C, OD 600 nm
From the text: as §1, §2

[11] = tested on: MRSA; type: cell-based, Methicillin-resistant Staphylococcus aureus (ATCC, BAA-41); conditions: 20 µl of wells without growth on agar, 18 h, 37 °C
[12] = tested on: HeLa; type: cell-based, human; conditions: 24 h, serum-free medium, MTT, 37 °C, 5% CO2; mean ± SD
Experimental: as §3, §4

[13] = tested on: Caco-2; type: cell-based, human; conditions: 24 h, serum-free medium, MTT, 37 °C, 5% CO2; mean ± SD
Experimental: as §3, §4

[14] = tested on: S. enterica; type: cell-based, Salmonella enterica (ATCC, 14028); conditions: micro-broth dilution, 3 h peptide treatment then MHB 18 h, 37 °C, OD 600 nm
From the text: as §1, §2

[15] = tested on: B. subtilis; type: cell-based, Bacillus subtilis (ATCC, 11774); conditions: 20 µl of wells without growth on agar, 18 h, 37 °C
[16] = tested on: B. subtilis; type: cell-based, Bacillus subtilis (ATCC, 11774); conditions: micro-broth dilution, 3 h peptide treatment then MHB 18 h, 37 °C, OD 600 nm
From the text: as §1, §2

[17] = tested on: C. albicans; type: cell-based, Candida albicans (TIMM, 1768); conditions: 20 µl of wells without growth on Sabouraud 4% Dextrose Agar, 18 h, 37 °C
[18] = tested on: S. enterica; type: cell-based, Salmonella enterica (ATCC, 14028); conditions: 20 µl of wells without growth on agar, 18 h, 37 °C
[19] = tested on: human RBCs; assay: Hemolytic assay; type: cell-based; conditions: 2% RBCs in PBS, 2 h, 37 °C, supernatant at 450 nm, 0.1% TritonX-100 = maximum; highest tested concentration 100 µM
Experimental: All methods were carried out in accordance with the Declaration of Helsinki, and the Research Ethics Committee approved all experimental protocols at Sunway University (approval no. PGSUREC2020/005). A human blood sample was collected from a healthy person for this assay upon obtaining informed consent. The fresh blood sample was centrifuged at 3700 g for 5 min at RT. The supernatant (serum) was removed and red blood cells (RBCs) were washed three times with 1X PBS and diluted to a final concentration of 2% (PBS—137 mM NaCl, 2.7 mM KCl, 10 mM Na2HPO4, 1.76 mM KH2PO4). Cells were stored at 4 °C, and used within 5 h.
The hemolytic activities of the identified cryptides were evaluated as previously described. The prepared RBCs were treated with different peptide concentrations for 2 h at 37 °C. The treated RBCs were centrifuged, under the same centrifugation conditions, and the supernatants were transferred to a 96-well plate and measured at 450 nm.

[20] = tested on: HCT 116; type: cell-based, human; conditions: 24 h, serum-free medium, MTT, 37 °C, 5% CO2; mean ± SD
Experimental: as §3, §4

SMILES | MIC (µM) P. aeruginosa [2] | IC50 [3] | IC50 [4] | IC50 [5] | MBC (µM) P. aeruginosa [6] | Cell death of HEK-293 [7] | Minimal biofilm eradication concentration (MBEC) S. enterica [8] | MIC (µM) C. albicans [9] | MIC (µM) MRSA [10] | MBC (µM) MRSA [11] | IC50 [12] | IC50 [13] | MIC (µM) S. enterica [14] | MBC (µM) B. subtilis [15] | MIC (µM) B. subtilis [16] | MFC (µM) C. albicans [17] | MBC (µM) S. enterica [18] | other results
CC(C)[C@H](NC(=O)[C@H](CO)NC(=O)[C@H](Cc1ccccc1)NC(=O)[C@H](CC(N)=O)NC(=O)[C@H](CS)NC(=O)[C@H](Cc1ccc(O)cc1)NC(=O)[C@H](Cc1c[nH]cn1)NC(=O)CN)C(=O)N[C@H](C(=O)N1CCC[C@H]1C(=O)N[C@@H](CCCCN)C(=O)N[C@@H](Cc1ccccc1)C(=O)N[C@@H](CCCCN)C(=O)N[C@@H](CCCNC(=N)N)C(=O)N[C@@H](Cc1c[nH]c2ccccc12)C(=O)O)[C@@H](C)O [AD8] (H-GHYCNFSVTPKFKRW-OH) | 25 µM (≈ 46.8 µg/mL) | 27.2 ± 0.4 µM | 23.3 ± 0.7 µM | 7.3 ± 0.5 µM | 50 µM (≈ 93.5 µg/mL) | less than 10% | 200 µM | 6.25 µM (≈ 11.7 µg/mL) | 3.12 µM (≈ 5.83 µg/mL) | 12.5 µM (≈ 23.4 µg/mL) | 42.6 ± 0.3 µM | 4.4 ± 0.5 µM | 0.78 µM (≈ 1.46 µg/mL) | 0.78 µM (≈ 1.46 µg/mL) | 0.78 µM (≈ 1.46 µg/mL) | 6.25 µM (≈ 11.7 µg/mL) | 0.78 µM (≈ 1.46 µg/mL) | MBC values, range against the different tested pathogens [1]: 0.78 ~ 50 µM; MIC values, range against the different tested pathogens [1]: 0.78 ~ 25 µM
CC(C)C[C@H](NC(=O)[C@H](C)NC(=O)[C@H](Cc1ccccc1)NC(=O)[C@@H](N)Cc1ccccc1)C(=O)N[C@@H](CCC(N)=O)C(=O)N[C@@H](CS)C(=O)N[C@@H](C)C(=O)N[C@@H](C)C(=O)N[C@@H](CCCCN)C(=O)N[C@H](C(=O)N[C@@H](CCCNC(=N)N)C(=O)N[C@H](C(=O)N[C@@H](CCCNC(=N)N)C(=O)N[C@@H](CCCNC(=N)N)C(=O)N[C@H](C(=O)O)C(C)C)[C@@H](C)O)[C@@H](C)O [AD12] (H-FFALQCAAKTRTRRV-OH) | 12.5 µM (≈ 22.1 µg/mL) | 159 µM | – | 9.4 ± 1 µM | 25 µM (≈ 44.2 µg/mL) | less than 10% | 200 µM | 12.5 µM (≈ 22.1 µg/mL) | 6.25 µM (≈ 11.1 µg/mL) | 25 µM (≈ 44.2 µg/mL) | 8.5 ± 0.5 µM | 4.35 µM | 0.78 µM (≈ 1.38 µg/mL) | 0.78 µM (≈ 1.38 µg/mL) | 0.78 µM (≈ 1.38 µg/mL) | 12.5 µM (≈ 22.1 µg/mL) | 0.78 µM (≈ 1.38 µg/mL) | –
N.N.[Cl][Pt][Cl] [Cisplatin, reference compound] | – | 74 ± 1.2 µM | 54.4 ± 0.8 µM | 15.3 ± 0.6 µM | – | – | – | – | – | – | 63.6 ± 0.4 µM | – | – | – | – | – | – | Hemolysis of human RBCs at 100 µM [19]: less than 10%; IC50 (µM) HCT 116 [20]: resistant
